Data reported in patent US6723717B1, “Sulfur-containing thyroxane derivatives and their use as hair growth promotors” (The University of Texas Southwestern Medical Center, priority 1999, dated 2004).

Test system: male Sprague Dawley rats
Test: Cardiotoxicity Assay (heart-to-body weight ratio)
Format: in vivo, rat
Conditions: 250 μg/kg subcutaneously once daily for 28 days, hearts weighed on day 30
Excerpt: The cardiotoxicity assay measures the potential of a test compound to adversely affect the cardiovascular system. As thyroid hormone (T3) damages the cardiovascular system, the heart enlarges. See, e.g., Gomberg-Maitland et al., “Thyroid hormone and Cardiovascular Disease”, American Heart Journal, Vol. 135(2), pp. 187-196 (1998); Klein and Ojamaa, “Thyroid Hormone and the Cardiovascular System”, Current Opinion in Endocrinology and Diabetes, Vol. 4, pp.341-346 (1997); and Klemperer et al., “Thyroid Hormone Therapy and Cardiovascular Disease”, Progress in Cardiovascular Diseases, Vol. 37 (4), pp. 329-336 (1996). This increases the weight of the heart relative to whole body weight. The cardiotoxicity assay herein below is used to test compounds for potentially adverse cardiac effects by measuring their effect on the heart-to-body weight ratio.
Two groups each of six male Sprague Dawley rats (Harlan Sprague Dawley, Inc., Indianapolis, Ind.) (each weighing from approximately 220 grams to 235 grams) are utilized. The first group is a vehicle control group and the second group is a test compound group. The length of the assay is 30 days, with treatment of vehicle or test compound in vehicle daily for 28 of those days as described below.
Prior to initiation of the assay, each rat is allowed to acclimate to standard environmental conditions for 5 days. […]

## N[C@@H](Cc1cc(I)c(Oc2cc(I)c(O)c(I)c2)c(I)c1)C(=O)O [Example T4, thyroxine]
  cardiac-sparing (index C = RT/RV, heart/body weight ratio of test group over vehicle group; C less than 1.3 = cardiac-sparing): not cardiac-sparine
